Data published in patent US4058624A, “Broad spectrum antibacterial compositions containing tris (hydroxymethyl)-aminomethane and diphenyl and loweralkyl substituted diphenyl polyamines” (Merck & Co., Inc., priority 1976, dated 1977).

Assay: Acute toxicity, oral LD50 mice (Table I)
Settings: mouse, in vivo
From the text: The low toxicity of these compounds makes them especially attractive for use where contact with skin surfaces or possible ingestion renders the use of irritating or toxic materials inadvisable.

Q: Which LD50 does the source give for `CC(C)(C)c1ccc(CCCC(CCCc2ccc(C(C)(C)C)cc2)NCCCNCCCNCCCN)cc1.Cl.Cl.Cl.Cl` [1-[1,7-bis-(4-t-butylphenyl)-4-heptyl]-1,5,9,13-tetrazatridecane tetrahydrochloride] here?
A: 1550 mg/kg

Q: For `Cc1cc(C)c(CCC(CCc2c(C)cc(C)cc2C)NCCCNCCCN)c(C)c1.Cl.Cl.Cl` [1-[1,5-di-(2,4,6-trimethylphenyl)-3-pentyl]-1,5,9-triazanonane trihydrochloride], which LD50 is on record?
A: 1150 mg/kg

Q: For `Cc1ccc(C(C)(C)C)cc1CCCC(CCCc1cc(C(C)(C)C)ccc1C)NCCCNCCCN.Cl.Cl.Cl` [1-[1,7-di-(2-methyl-5-t-butylphenyl)-4-heptyl]-1,5,9-triazanonane trihydrochloride], which LD50 is on record?
A: 1650 mg/kg

Q: With `Cc1ccc(C(C)(C)C)cc1CCCC(CCCc1cc(C(C)(C)C)ccc1C)NCCNCCNCCN.Cl.Cl.Cl.Cl` [1-[1,7-di-(2-methyl-5-t-butylphenyl)-4-heptyl]-1,4,7,10-tetrazadecane tetrahydrochloride] as the compound, how does the LD50 read?
A: 2070 mg/kg
